Source: PMC8875392, “Design and Characterization of Myristoylated and Non-Myristoylated Peptides Effective against Candida spp. Clinical Isolates” (International Journal of Molecular Sciences, 2022)
In brackets after ≈: the same amount, converted by molar mass. Like-named read-outs stand apart in the source and are kept apart here. Where a SMILES comes first, the peptide text is derived from it. The star is where a group is joined. Myristoyl = CCCCCCCCCCCCCC(=O)*

Legend:
[1] = tested on: C. auris clinical isolates; type: cell-based, Candida auris; details: for MIC: CLSI broth microdilution, RPMI 1640
Procedure: (§1) The antifungal activity of AMPs was determined against 50 clinical isolates, 10 for each of the following Candida species: C. albicans, C. tropicalis, C. glabrata, C. parapsilosis, and C. auris. The latter were derived from patients with positive blood cultures in four hospitals in India, with known resistance profiles to fluconazole, voriconazole, and echinocandins. Yeast cells were grown in Brain Heart Infusion (BHI) medium (Sigma-Aldrich, Gillingham, UK) for 16 h at 37 °C in a 150-rpm orbital shaker. Cells were then sub-inoculated in a fresh BHI medium and grown to an optical density (OD) of 0.3. The turbidity of the inoculum was adjusted to 0.5 McFarland and diluted 1:500 in RPMI 1640 broth, corresponding to around […].
(§2) Minimal inhibitory concentrations (MICs) were determined by Broth microdilution susceptibility tests, according to The Clinical and Laboratory Standards Institute (CLSI) international guidelines. A fungal suspension of 0.5 MacFarland was diluted 1:500 in RPMI 1640 broth and incubated in 96 multi-well plates containing AMPs at different concentrations ranging from 0.125 to 256 μg/mL. In this range of concentration, lipopeptides were completely soluble. […] The MIC90 represents the value at which ≥90% of the strains within a test population were inhibited.

[2] = tested on: C. glabrata clinical isolates; type: cell-based, Candida glabrata; details: 16 h
Procedure: as §1, §2

[3] = Membrane partition, Trp-1 fluorescence upon titration with LUVs; type: binding; details: for KX (mole fraction partition constant): peptide 1.0 μM, 20 mM phosphate pH 7.4, 150 mM NaCl, 0.8 mM EDTA, 298 K, Trp fluorescence, quadruplicate; for ΔG: ΔG = −RT lnKx; for Selectivity Ratio: ratio between partition constants in anionic (POPC/POPG) and zwitterionic (POPC) membranes
Procedure: To quantify the interaction of different lipidated and non-lipidated peptides with membrane mimetic systems, we measured the intrinsic fluorescence of Trp-1 upon partition with LUVs (large unilamellar vesicles) of different compositions. Briefly, the mixtures of POPC/POPG (70%/30% w/w) LUVs were used to mimic anionic membranes and POPC only to mimic zwitterionic membranes. […] The mole fraction partition constants Kx were calculated from the partition isotherms as previously described. Figure 2 reports the partition isotherms for the titration of myristoylated and non-myristoylated peptides with POPC and POPC/POPG vesicles.
The values of Kx for all peptides are reported in Table 2 together with ΔG values, calculated using the expression ΔG = −RT lnKx, and the selectivity ratio defined as the ratio between partition constants determined in anionic and zwitterionic membranes. Higher values of the selectivity ratio represent a preference of the peptide for anionic vesicles, while lower values indicate a preference for the zwitterionic one.
The lipids POPC (1-palmitoyl-2-oleoyl-sn-glycero-3-phosphocholine) and POPG (1-palmitoyl-2-oleoyl-sn-glycero-3-phosphoglycerol) were purchased from Avanti Polar Lipids (Alabaster, AL, USA) and used without further purification. LUVs (Large Unilamellar Vesicles) were prepared as previously reported. Briefly, appropriate amounts of lipids were dissolved in chloroform/methanol 9:1. The solvent was then removed by rotary evaporation and samples were placed overnight under a high vacuum. The lipid film was then hydrated by adding 1 mL of buffer (20 mM phosphate buffer at pH 7.4 with 150 mM NaCl and 0.8 mM EDTA) and then subjected to 5 freeze–thaw cycles and vortexed. The multilamellar vesicles (MLVS) were extruded through a polycarbonate membrane with pores of 100 nm by an Avanti polar mini extruder, and the obtained LUVs were used within 48 h of preparation. LUVs were composed of 100% POPC and a 70%/30% (w/w) combination of POPC/POPG. The final concentration of the lipid was 10 mM.
All the steady-state fluorescence measurements were carried out using a Perkin Elmer LS55 fluorescence spectrophotometer. All the experiments were conducted at 298 K in a thermostatic cell holder and in 20 mM phosphate buffer at pH 7.4 containing 0.8 mM EDTA and 150 mM NaCl unless otherwise specified.
Since all peptides contain tryptophan, fluorescence spectroscopy is an appropriate tool for studying these molecules. Peptide partitioning between buffer and lipid vesicles was monitored by measuring the increase in tryptophan fluorescence upon the addition of LUVs. Trp fluorescence spectra were recorded with λexc = 295 nm and scanning the emission between 305 and 400 nm. Measurements were carried out with a cross-oriented configuration of polarizers (polem = 0° and polexc = 90°). Briefly, a 1.0 μM solution of the peptide was titrated with LUVs of different compositions (POPC 100% and 70%/30% POPC/POPG) as previously described. The background effects of vesicles and buffer were subtracted from each spectrum. All the fluorescence emissions were corrected for dilution. Mole fraction partition coefficients Kx were calculated from the fraction of the partitioned peptide fp as previously described. The fraction of the partitioned peptide fp is given by the following equation [53] (6) fp=Kx[L]/[W]+Kx[L] where Kx is the mole fraction partition constant, and [L] and [W] are the molar concentrations of lipids and water, respectively.

[4] = tested on: C. albicans clinical isolates; type: cell-based, Candida albicans; details: 16 h
Procedure: as §1, §2

[5] = tested on: C. tropicalis clinical isolates; type: cell-based, Candida tropicalis; details: for MIC90: clinical isolates, 16 h; for MIC: CLSI broth microdilution, RPMI 1640
Procedure: as §1, §2

[6] = tested on: C. parapsilosis clinical isolates; type: cell-based, Candida parapsilosis
Procedure: as §1, §2

[7] = isolate Candida parapsilosis 8, CLSI broth microdilution, RPMI 1640
[8] = isolate Candida parapsilosis 9, CLSI broth microdilution, RPMI 1640
[9] = isolate Candida parapsilosis 10, CLSI broth microdilution, RPMI 1640

Structure (SMILES) | MIC ([1]; isolate Candida Auris 1) [mg/L] | MIC ([1]; isolate Candida Auris 2) [mg/L] | MIC ([1]; isolate Candida Auris 3) [mg/L] | MIC ([1]; isolate Candida Auris 4) [mg/L] | MIC ([1]; isolate Candida Auris 5) [mg/L] | MIC ([1]; isolate Candida Auris 6) [mg/L] | MIC ([1]; isolate Candida Auris 7) [mg/L] | MIC ([1]; isolate Candida Auris 8) [mg/L] | MIC ([1]; isolate Candida Auris 9) [mg/L] | MIC ([1]; isolate Candida Auris 10) [mg/L] | MIC90 [2] [µg/mL] | KX (mole fraction partition constant) ([3]; POPC LUVs) | ΔG ([3]; POPC LUVs) [kJ/mol] | KX (mole fraction partition constant) ([3]; POPC/POPG 70%/30% LUVs) | ΔG ([3]; POPC/POPG LUVs) [kJ/mol] | Selectivity Ratio [3] | MIC [4] [mg/L] | MIC90 [4] [µg/mL] | MIC90 [5] [µg/mL] | MIC ([5]; isolate Candida tropicalis 1) [mg/L] | other results
CCCCCCCCCCCCCC(=O)N[C@@H](Cc1c[nH]c2ccccc12)C(=O)N[C@@H](CCCNC(=N)N)C(=O)NCC(=O)N[C@H](C(=O)N[C@H](C(=O)N[C@@H](CCCCN)C(=O)N[C@H](C(=O)N[C@H](C(=O)N[C@@H](CCCCN)C(=O)N[C@@H](CCCCN)C(=O)N[C@H](C(=O)O)C(C)C)C(C)C)C(C)C)[C@@H](C)O)[C@@H](C)CC [Myr-B] (Myristoyl-WRGITKVVKKV-OH; C-terminus assumed) | 8 (≈ 5.25 µM) | 8 (≈ 5.25 µM) | 16 (≈ 10.5 µM) | 32 (≈ 21 µM) | 32 (≈ 21 µM) | 16 (≈ 10.5 µM) | 16 (≈ 10.5 µM) | 16 (≈ 10.5 µM) | 32 (≈ 21 µM) | 32 (≈ 21 µM) | 32 (≈ 21 µM) | (4.7 ± 0.6) × 10^5 | -32.37 | (1.7 ± 0.2) × 10^6 | -35.56 | 3.62 | 16 (≈ 10.5 µM) | 16 (≈ 10.5 µM) | 8 (≈ 5.25 µM) | 8 (≈ 5.25 µM) | MIC90 ([1]; clinical isolates, 16 h): 20 µM (≈ 30.5 µg/mL); MIC (Range) ([1]; clinical isolates, 16 h): 16 to 32 µg/mL; MIC (Range) [2]: 16 to 32 µg/mL; MIC ([5]; isolate Candida tropicalis 2): 8 mg/L (≈ 5.25 µM); MIC ([5]; isolate Candida tropicalis 3): 8 mg/L (≈ 5.25 µM); MIC ([5]; isolate Candida tropicalis 4): 8 mg/L (≈ 5.25 µM); MIC ([5]; isolate Candida tropicalis 5): 8 mg/L (≈ 5.25 µM); MIC ([5]; isolate Candida tropicalis 6): 8 mg/L (≈ 5.25 µM); MIC ([5]; isolate Candida tropicalis 7): 8 mg/L (≈ 5.25 µM); MIC ([5]; isolate Candida tropicalis 8): 8 mg/L (≈ 5.25 µM); MIC ([5]; isolate Candida tropicalis 9): 8 mg/L (≈ 5.25 µM); MIC ([5]; isolate Candida tropicalis 10): 8 mg/L (≈ 5.25 µM); MIC ([6]; clinical isolates, 16 h): 32 mg/L (≈ 21 µM); MIC90 ([6]; clinical isolates, 16 h): 32 µg/mL (≈ 21 µM); MIC [6, 7]: 32 mg/L (≈ 21 µM); MIC [6, 8]: 32 mg/L (≈ 21 µM); MIC [6, 9]: 32 mg/L (≈ 21 µM)
CCCCCCCCCCCCCC(=O)N[C@@H](Cc1c[nH]c2ccccc12)C(=O)N[C@H](C(=O)N[C@H](C(=O)N[C@@H](CCCCN)C(=O)N[C@@H](CCCCN)C(=O)N[C@H](C(=O)N[C@@H](CCCCN)C(=O)NCC(=O)N[C@@H](CC(C)C)C(=O)N[C@@H](CC(C)C)C(=O)N[C@@H](CCCCN)C(=O)O)C(C)C)C(C)C)C(C)C [Myr-C] (Myristoyl-WVVKKVKGLLK-OH; C-terminus assumed) | 16 (≈ 10.6 µM) | 16 (≈ 10.6 µM) | 32 (≈ 21.2 µM) | 32 (≈ 21.2 µM) | 64 (≈ 42.4 µM) | 32 (≈ 21.2 µM) | 32 (≈ 21.2 µM) | 32 (≈ 21.2 µM) | 16 (≈ 10.6 µM) | 32 (≈ 21.2 µM) | 32 (≈ 21.2 µM) | (4.9 ± 0.3) × 10^5 | -32.44 | (1.2 ± 0.2) × 10^6 | -34.70 | 2.45 | 32 (≈ 21.2 µM) | 32 (≈ 21.2 µM) | 16 (≈ 10.6 µM) | 16 (≈ 10.6 µM) | MIC [2]: 32 mg/L (≈ 21.2 µM); MIC ([5]; isolate Candida tropicalis 2): 16 mg/L (≈ 10.6 µM); MIC ([5]; isolate Candida tropicalis 3): 16 mg/L (≈ 10.6 µM); MIC ([5]; isolate Candida tropicalis 4): 16 mg/L (≈ 10.6 µM); MIC ([5]; isolate Candida tropicalis 5): 16 mg/L (≈ 10.6 µM); MIC ([5]; isolate Candida tropicalis 6): 16 mg/L (≈ 10.6 µM); MIC ([5]; isolate Candida tropicalis 7): 16 mg/L (≈ 10.6 µM); MIC ([5]; isolate Candida tropicalis 8): 16 mg/L (≈ 10.6 µM); MIC ([5]; isolate Candida tropicalis 9): 16 mg/L (≈ 10.6 µM); MIC ([5]; isolate Candida tropicalis 10): 16 mg/L (≈ 10.6 µM); MIC ([6]; clinical isolates, 16 h): 32 mg/L (≈ 21.2 µM); MIC90 ([6]; clinical isolates, 16 h): 32 µg/mL (≈ 21.2 µM); MIC [6, 7]: 32 mg/L (≈ 21.2 µM); MIC [6, 8]: 32 mg/L (≈ 21.2 µM); MIC [6, 9]: 32 mg/L (≈ 21.2 µM)
